IC50 data for two molecules are collected here from patent publication US20060025414A1, “Poly-heterocyclic compounds and their use as metabotropic glutamate receptor antagonists” (AstraZeneca AB, priority 2004, published 2006).

The test deals with T1, human mGluR5d (Homo sapiens, UniProt P41594).
T1 construct: expressed in transfected cells
Kind of test: FLIPR assay of [Ca2+]i mobilization (Group I receptor antagonist activity). Format: cell-based. The settings on record: cells expressing human mGluR5d; antagonist block of agonist challenge. Here is the method: For FLIPR analysis, cells expressing human mGluR5d as described in WO97/05252 were seeded on collagen coated clear bottom 96-well plates with black sides and analysis of [Ca^2+]i mobilization was done 24 h after seeding.
FLIPR experiments were done using a laser setting of 0.800 W and a 0.4 second CCD camera shutter speed. Each FLIPR experiment was initiated with 160 μl of buffer present in each well of the cell plate. After each addition of the compound, the fluorescence signal was sampled 50 times at 1 second intervals followed by 3 samples at 5 second intervals. Responses were measured as the peak height of the response within the sample period. EC50 and IC50 determinations were made from data obtained from 8-point concentration response curves (CRC) performed in duplicate. Agonist CRC were generated by scaling all responses to the maximal response observed for the plate. […]
FLIPR experiments were done using a laser setting of 0.800 W and a 0.4 second CCD camera shutter speed with excitation and emission wavelengths of 488 nm and 562 nm, respectively. […] After each addition the fluorescence signal was sampled 50 times at 1 second intervals followed by 3 samples at 5 second intervals. Responses were measured as the peak height of the response within the sample period. […]

Structures are written as SMILES. pIC50: −log10 of the molar value.

T1 sequence (P41594 21-942 isoform P41594-3 limits assumed): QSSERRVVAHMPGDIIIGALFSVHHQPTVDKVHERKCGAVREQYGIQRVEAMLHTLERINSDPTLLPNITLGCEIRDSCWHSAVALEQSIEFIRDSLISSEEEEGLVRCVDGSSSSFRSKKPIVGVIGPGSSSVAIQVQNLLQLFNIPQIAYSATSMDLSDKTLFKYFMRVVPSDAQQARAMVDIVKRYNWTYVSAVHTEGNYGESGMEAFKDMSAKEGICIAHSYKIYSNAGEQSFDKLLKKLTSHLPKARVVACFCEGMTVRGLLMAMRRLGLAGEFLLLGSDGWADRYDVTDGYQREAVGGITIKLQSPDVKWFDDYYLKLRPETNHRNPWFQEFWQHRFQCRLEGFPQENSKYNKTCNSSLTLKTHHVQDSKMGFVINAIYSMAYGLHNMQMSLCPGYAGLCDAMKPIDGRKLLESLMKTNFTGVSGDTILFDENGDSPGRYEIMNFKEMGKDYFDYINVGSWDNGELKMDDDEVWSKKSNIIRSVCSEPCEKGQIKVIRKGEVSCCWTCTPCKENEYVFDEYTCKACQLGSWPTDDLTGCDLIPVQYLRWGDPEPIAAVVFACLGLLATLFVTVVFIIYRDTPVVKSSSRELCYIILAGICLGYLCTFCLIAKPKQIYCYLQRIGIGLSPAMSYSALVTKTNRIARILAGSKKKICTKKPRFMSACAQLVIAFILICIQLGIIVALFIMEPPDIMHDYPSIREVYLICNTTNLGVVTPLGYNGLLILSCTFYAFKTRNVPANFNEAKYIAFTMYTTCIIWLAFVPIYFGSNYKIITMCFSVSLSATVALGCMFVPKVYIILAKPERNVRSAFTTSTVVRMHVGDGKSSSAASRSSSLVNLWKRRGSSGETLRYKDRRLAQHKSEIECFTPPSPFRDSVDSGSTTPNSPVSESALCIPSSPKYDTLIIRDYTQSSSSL

A word on the pIC50: it is −log10 of the IC50, conventionally taken in molar units. Read a high pIC50 as a low IC50. `Cn1c(-c2ccc(OC(F)F)cc2)nnc1N1CCOCC1c1nc(-c2cccc(Cl)c2)no1` (centres unmarked) [3-[3-(3-Chloro-phenyl)-[1,2,4]oxadiazol-5-yl]-4-[5-(4-difluoromethoxy-phenyl)-4-methyl-4H-[1,2,4]triazol-3-yl]-morpholine]: the pIC50 is 6.70. In the case of `Cn1c(-c2ccncc2)nnc1N1CCCCC1c1nnn(-c2cccc(Cl)c2)n1` (centres unmarked) [4-(5-{2-[2-(3-chlorophenyl)-2H-tetrazol-5-yl]piperidin-1-yl}-4-methyl-4H-1,2,4-triazol-3-yl)pyridine], the pIC50 was 7.40.
